Here are results for 19 compounds from PubChem BioAssay AID200 (DTP/NCI, 2004).

This experiment concerns B6C3F1 mice, B16 melanoma ip, median survival T/C. In words: NCI In Vivo Anticancer Drug Screen. Data for tumor model B16 Melanoma (intraperitoneal) in B6C3F1 mice. Conditions: endpoint: median survival time, higher = longer survival. In a few lines: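 Mice bearing transplanted tumor were dosed with compound or vehicle, and survival was recorded. Activity is expressed as the treated-group measurement (T) divided by the vehicle control measurement (C).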

[1] abbreviates: dose: 0.75 mg/kg/injection, schedule: Q01DX009 (ip), vehicle: saline.
The mark [2] stands for this setting: dose: 1.5 mg/kg/injection, schedule: Q01DX009 (ip), vehicle: saline.
Setting [3] is: dose: 3.0 mg/kg/injection, schedule: Q01DX009 (ip), vehicle: saline.
The mark [4] stands for this setting: dose: 50.0 mg/kg/injection, schedule: Q01DX009 (ip), vehicle: saline with Tween-80.
[5] abbreviates: dose: 100.0 mg/kg/injection, schedule: Q01DX009 (ip), vehicle: Klucel (hydroxypropylcellulose) (HPC).
Where [6] appears, read: dose: 100.0 mg/kg/injection, schedule: Q01DX009 (ip), vehicle: saline with Tween-80.
The mark [7] stands for this setting: dose: 200.0 mg/kg/injection, schedule: Q01DX009 (ip), vehicle: Klucel (hydroxypropylcellulose) (HPC).
Where [8] appears, read: dose: 200.0 mg/kg/injection, schedule: Q01DX009 (ip), vehicle: saline with Tween-80.
Setting [9] is: dose: 400.0 mg/kg/injection, schedule: Q01DX009 (ip), vehicle: Klucel (hydroxypropylcellulose) (HPC).
Setting [10] is: dose: 50.0 mg/kg/injection, schedule: Q01DX009 (ip), vehicle: saline.
The mark [11] stands for this setting: dose: 100.0 mg/kg/injection, schedule: Q01DX009 (ip), vehicle: saline.
Setting [12] is: dose: 200.0 mg/kg/injection, schedule: Q01DX009 (ip), vehicle: saline.

Values joined by “and” are separate entries in the source; they are usually repeats but may differ in a detail not shown here. Equal entries are not always repeated. Inconclusive results and toxic doses are left out. Where a SMILES comes first, the peptide text is derived from it. [ ]: non-standard residue; d: D form. The star is where a group is joined. Cbz = O=C(OCc1ccccc1)*; Nva = CCC[CH](N)C(=O)O

Take `CC[C@@]1(O)C[C@H](OC2CC(N(C)C)C(OC3CC(O)C(O[C@@H]4O[C@@H](C)C(=O)C=C4N)C(C)O3)C(C)O2)c2c(cc3c(c2O)C(=O)c2c(O)ccc(O)c2C3=O)[C@H]1C(=O)OC` (stereo partly drawn): the T/C is 102 % of control (dose: 0.02 mg/kg/injection, schedule: Q01DX001 (ip), vehicle: suspension in saline); 111 % of control (dose: 0.05 mg/kg/injection, schedule: Q01DX001 (ip), vehicle: suspension in saline); 111 % of control (dose: 0.1 mg/kg/injection, schedule: Q01DX001 (ip), vehicle: suspension in saline); 121 % of control (dose: 0.19 mg/kg/injection, schedule: Q01DX009 (ip), vehicle: saline); 116 % of control (dose: 0.2 mg/kg/injection, schedule: Q01DX001 (ip), vehicle: suspension in saline); 121 % of control (dose: 0.4 mg/kg/injection, schedule: Q01DX001 (ip), vehicle: suspension in saline). For the same compound, the T/C runs as follows: under setting [1], 153 % of control; (dose: 0.8 mg/kg/injection, schedule: Q01DX001 (ip), vehicle: suspension in saline) 121 % of control; under setting [2], 173 % of control; under setting [3], 179 % of control; (dose: 3.2 mg/kg/injection, schedule: Q01DX001 (ip), vehicle: suspension in saline) 152 % of control.

`NC(Cc1ccc(O)cc1)C(=O)O` (stereo not drawn): the T/C was 102 % of control (dose: 12.5 mg/kg/injection, schedule: Q01DX009 (ip), vehicle: saline with Tween-80); 113 % of control (dose: 25.0 mg/kg/injection, schedule: Q01DX009 (ip), vehicle: saline with Tween-80); 120 % of control (dose: 50.0 mg/kg/injection, schedule: Q01DX009 (ip), vehicle: Klucel (hydroxypropylcellulose) (HPC)); 113 % of control under setting [4]; 99 % of control under setting [5]; 103 % of control under setting [6]. For the same compound, the T/C is, setting by setting: under setting [7], 109 % of control; under setting [8], 98 % of control; under setting [9], 96 % of control; (dose: 400.0 mg/kg/injection, schedule: Q01DX009 (ip), vehicle: saline with Tween-80) 103 % of control.

As for `CCCC(NC(=O)OCc1ccccc1)C(=O)NC(Cc1ccccc1)C(N)=O` (stereo not drawn) (Cbz-[Nva]-Phe-NH2; configuration not given here), the T/C under setting [5] is 101 % of control, the T/C under setting [7] was 91 % of control and the T/C under setting [9] was 89 % of control.

For the compound `CN(C)CCNc1ccc(NCCN(C)C)c2c1C(=O)c1ccccc1C2=O`, the T/C (dose: 20.0 mg/kg/injection, schedule: Q01DX009 (ip), vehicle: distilled water + Tween-80) was 117 % of control.

For the compound `CCC(C)C(NC(=O)CN)C(=O)O` (stereo not drawn) (HELM PEPTIDE1{G.[CCC(C)C(N[*:1])C(=O)O]}$$$$V2.0), the T/C under setting [10] was 92 % of control, the T/C under setting [11] is 92 % of control and the T/C under setting [12] was 92 % of control.

As to `NC(=O)/C=C/C(=O)c1c(Cl)cccc1Cl`, the T/C (dose: 0.78 mg/kg/injection, schedule: Q01DX009 (ip), vehicle: saline with Tween-80) is 100 % of control; the T/C (dose: 1.56 mg/kg/injection, schedule: Q01DX009 (ip), vehicle: saline with Tween-80) is 103 % of control; the T/C (dose: 3.12 mg/kg/injection, schedule: Q01DX009 (ip), vehicle: saline with Tween-80) was 90 % of control.

For `O=C1C2C3C=CC(C2C(=O)N1CO)C1C2C(=O)N(CO)C(=O)C2C31` (stereo not drawn), the T/C runs as follows: (dose: 6.25 mg/kg/injection, schedule: Q01DX009 (ip), vehicle: water) 102 % of control; (dose: 12.5 mg/kg/injection, schedule: Q01DX009 (ip), vehicle: water) 109 % of control; (dose: 25.0 mg/kg/injection, schedule: Q01DX009 (ip), vehicle: water) 113 % of control.

As to `S=C(S)NN1CCOCC1`, the T/C is, setting by setting: under setting [11], 98 % of control; under setting [12], 99 % of control; (dose: 400.0 mg/kg/injection, schedule: Q01DX009 (ip), vehicle: saline) 96 % of control.

`NC1=NC(=O)N2CC12` (stereo not drawn): the T/C (dose: 12.5 mg/kg/injection, schedule: Q01DX009 (ip), vehicle: saline) was 105 % of control; the T/C (dose: 25.0 mg/kg/injection, schedule: Q01DX009 (ip), vehicle: saline) is 95 % of control; the T/C under setting [10] was 95 % of control; the T/C under setting [11] is 89 % of control.

For `COc1cc2c(cc1O)C1C(O)C(O)C=C3CCN(C2)C31` (stereo not drawn), the T/C reads like this: (dose: 4.0 mg/kg/injection, schedule: Q01DX009 (ip), vehicle: saline + alcohol) 114 % of control; (dose: 8.0 mg/kg/injection, schedule: Q01DX009 (ip), vehicle: saline + alcohol) 100 % of control; (dose: 16.0 mg/kg/injection, schedule: Q01DX009 (ip), vehicle: saline + alcohol) 105 % of control; (dose: 32.0 mg/kg/injection, schedule: Q01DX009 (ip), vehicle: saline + alcohol) 102 % of control.

Take `Cc1ccccc1N=C(c1ccccc1)C1C(=O)c2ccccc2C1=O`: the T/C is 101 % of control (dose: 50.0 mg/kg/injection, schedule: Q01DX009 (ip), vehicle: DMSO); 106 % of control (dose: 100.0 mg/kg/injection, schedule: Q01DX009 (ip), vehicle: DMSO); 116 % of control (dose: 200.0 mg/kg/injection, schedule: Q01DX009 (ip), vehicle: DMSO); 108 % of control (dose: 400.0 mg/kg/injection, schedule: Q01DX009 (ip), vehicle: DMSO); 101 % of control (dose: 800.0 mg/kg/injection, schedule: Q01DX009 (ip), vehicle: DMSO).

As to `CC(C)C(NC(=O)C(Cc1cnc[nH]1)NC(=O)OCc1ccccc1)C(=O)O` (stereo not drawn) (Cbz-His-Val-OH; configuration not given here), the T/C by setting is: under setting [5], 94 % of control; under setting [7], 102 % of control; under setting [9], 102 % of control.

Regarding `CCCCNC(C)[C@]1(O)Cc2c(O)c3c(c(O)c2[C@@H](OC2CC(N)C(O)C(C)O2)C1)C(=O)c1c(OC)cccc1C3=O` (stereo partly drawn), the T/C is, setting by setting: under setting [1], 162 % of control and 163 % of control; under setting [2], 211 % of control and 232 % of control; under setting [3], 235 % of control and 333 % of control; (dose: 6.0 mg/kg/injection, schedule: Q01DX009 (ip), vehicle: saline) 229 % of control and 95 % of control.

Turning to `COC(=O)c1[nH]c(=O)[nH]c(=O)c1F`, the T/C is 98 % of control under setting [10], 94 % of control under setting [11] and 100 % of control under setting [12].

`COc1cccc(Sc2ccc([N+](=O)[O-])c3no[n+]([O-])c23)c1`: the T/C (dose: 1.85 mg/kg/injection, schedule: Q01DX009 (ip), vehicle: saline with Tween-80) was 111 % of control and 93 % of control; the T/C (dose: 3.75 mg/kg/injection, schedule: Q01DX009 (ip), vehicle: saline with Tween-80) was 94 % of control and 101 % of control; the T/C (dose: 7.5 mg/kg/injection, schedule: Q01DX009 (ip), vehicle: saline with Tween-80) was 92 % of control and 99 % of control; the T/C (dose: 15.0 mg/kg/injection, schedule: Q01DX009 (ip), vehicle: saline with Tween-80) was 88 % of control and 91 % of control; the T/C (dose: 30.0 mg/kg/injection, schedule: Q01DX009 (ip), vehicle: saline with Tween-80) is 88 % of control and 89 % of control and 95 % of control; the T/C (dose: 60.0 mg/kg/injection, schedule: Q01DX009 (ip), vehicle: saline with Tween-80) is 91 % of control.

On to `NCC(=O)NC(Cc1ccc(O)cc1)C(=O)O` (stereo not drawn) (HELM PEPTIDE1{G.[O=C(O)C(Cc1ccc(O)cc1)N[*:1]]}$$$$V2.0), for which the T/C is 110 % of control under setting [11] and 123 % of control under setting [12].

Consider `Clc1cc(Cl)nc(N2CC2)n1`, for which the T/C by setting is: (dose: 2.5 mg/kg/injection, schedule: Q01DX009 (ip), vehicle: saline with Tween-80) 108 % of control; (dose: 5.0 mg/kg/injection, schedule: Q01DX009 (ip), vehicle: saline with Tween-80) 102 % of control; (dose: 10.0 mg/kg/injection, schedule: Q01DX009 (ip), vehicle: saline with Tween-80) 106 % of control.

Regarding `c1ccc2[nH]ncc2c1`, the T/C by setting is: under setting [4], 107 % of control; under setting [6], 104 % of control; under setting [8], 102 % of control.

Take `NS(=O)(=O)c1cc2c(cc1Cl)NC=NS2(=O)=O`: the T/C is 94 % of control (dose: 37.5 mg/kg/injection, schedule: Q01DX009 (ip), vehicle: Klucel (hydroxypropylcellulose) (HPC)); 90 % of control (dose: 75.0 mg/kg/injection, schedule: Q01DX009 (ip), vehicle: Klucel (hydroxypropylcellulose) (HPC)); 95 % of control (dose: 150.0 mg/kg/injection, schedule: Q01DX009 (ip), vehicle: Klucel (hydroxypropylcellulose) (HPC)); 88 % of control (dose: 300.0 mg/kg/injection, schedule: Q01DX009 (ip), vehicle: Klucel (hydroxypropylcellulose) (HPC)).
